Reference: paper PMC7044277 (Nature Communications, 2020)
Several values for one entry are separate records, joined by “and”; a condition that tells them apart may be missing. Identical values can stand only once.

Key:
Assay type in all cases: cell-based
Set-up in all cases: GPCRome screening signal at PTGIR / GPCRome screening signal at PTH1R / GPCRome screening signal at PTH2R / GPCRome screening signal at QRFP / GPCRome screening signal at RXFP2 / GPCRome screening signal at RXFP3 / GPCRome screening signal at RXFP4 / GPCRome screening signal at S1PR2 / GPCRome screening signal at S1PR3 / GPCRome screening signal at S1PR4 / GPCRome screening signal at S1PR5 / GPCRome screening signal at SCTR / GPCRome screening signal at SSTR2 / GPCRome screening signal at SSSTR / GPCRome screening signal at SSTR4 / GPCRome screening signal at SSTR5 / GPCRome screening signal at SUCNR1 / GPCRome screening signal at TA1 / GPCRome screening signal at TAAR2 / GPCRome screening signal at TAAR5 / GPCRome screening signal at TAAR6 / GPCRome screening signal at TAAR8 / GPCRome screening signal at TACR1 / GPCRome screening signal at TACR2 / GPCRome screening signal at TACR3 / GPCRome screening signal at TBXA2R / GPCRome screening signal at TSHR / GPCRome screening signal at UTS2R / GPCRome screening signal at VIPR2 / GPCRome screening signal at GPR68 no V2 Tail / GPCRome screening signal at GRM2 / GPCRome screening signal at GRM3: reference not given here
320 non-olfactory GPCRs [1] = target: T1, 320 non-olfactory GPCRs (Homo sapiens, UniProt O95136); conditions: receptor S1PR2
T1 construct: expressed in transfected cells; host or cells: HTLA cells

320 non-olfactory GPCRs [2] = target: 320 non-olfactory GPCRs (Homo sapiens, UniProt O95977); conditions: receptor S1PR4
320 non-olfactory GPCRs [3] = target: 320 non-olfactory GPCRs (Homo sapiens, UniProt P30872); conditions: receptor SSTR1
320 non-olfactory GPCRs [4] = target: 320 non-olfactory GPCRs (Homo sapiens, UniProt P35346); conditions: receptor SSTR5
[5] = Fig_5f, single replicate values
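Throughout, for GPCRome agonism screen response: fold over basal response of each receptor without drug.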

T1 sequence (O95136 whole entry): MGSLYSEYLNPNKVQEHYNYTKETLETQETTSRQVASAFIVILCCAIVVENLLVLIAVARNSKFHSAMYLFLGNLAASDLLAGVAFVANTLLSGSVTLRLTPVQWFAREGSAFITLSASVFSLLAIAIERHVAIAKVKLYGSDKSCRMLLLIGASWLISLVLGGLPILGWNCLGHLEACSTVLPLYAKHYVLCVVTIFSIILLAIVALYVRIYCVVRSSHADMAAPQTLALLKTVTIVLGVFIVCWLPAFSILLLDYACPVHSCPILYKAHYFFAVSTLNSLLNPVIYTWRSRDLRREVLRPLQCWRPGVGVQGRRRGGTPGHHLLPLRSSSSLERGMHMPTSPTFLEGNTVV
Chain of 320 non-olfactory GPCRs (Homo sapiens, UniProt O95977) (O95977 whole entry): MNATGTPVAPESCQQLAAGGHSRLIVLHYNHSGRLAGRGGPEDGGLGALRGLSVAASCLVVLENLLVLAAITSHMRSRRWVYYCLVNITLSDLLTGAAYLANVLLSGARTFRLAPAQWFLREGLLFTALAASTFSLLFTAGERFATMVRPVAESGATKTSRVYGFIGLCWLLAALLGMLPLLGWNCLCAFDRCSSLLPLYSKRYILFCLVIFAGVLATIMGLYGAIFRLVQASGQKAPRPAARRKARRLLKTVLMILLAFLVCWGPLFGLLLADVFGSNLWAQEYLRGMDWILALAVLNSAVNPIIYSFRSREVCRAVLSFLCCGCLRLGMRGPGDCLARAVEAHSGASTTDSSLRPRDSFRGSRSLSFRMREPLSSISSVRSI
Chain of 320 non-olfactory GPCRs (Homo sapiens, UniProt P35346) (P35346 whole entry): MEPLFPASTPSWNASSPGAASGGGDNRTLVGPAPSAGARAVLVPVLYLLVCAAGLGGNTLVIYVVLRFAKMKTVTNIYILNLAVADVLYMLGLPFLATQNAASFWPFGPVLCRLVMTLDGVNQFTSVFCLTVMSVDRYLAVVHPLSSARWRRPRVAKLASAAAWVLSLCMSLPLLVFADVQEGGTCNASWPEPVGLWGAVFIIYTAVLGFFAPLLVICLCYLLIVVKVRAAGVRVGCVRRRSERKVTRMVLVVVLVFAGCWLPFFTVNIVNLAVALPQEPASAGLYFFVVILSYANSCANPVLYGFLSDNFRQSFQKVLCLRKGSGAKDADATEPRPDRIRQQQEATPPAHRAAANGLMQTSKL
Chain of 320 non-olfactory GPCRs (Homo sapiens, UniProt P30872) (P30872 whole entry): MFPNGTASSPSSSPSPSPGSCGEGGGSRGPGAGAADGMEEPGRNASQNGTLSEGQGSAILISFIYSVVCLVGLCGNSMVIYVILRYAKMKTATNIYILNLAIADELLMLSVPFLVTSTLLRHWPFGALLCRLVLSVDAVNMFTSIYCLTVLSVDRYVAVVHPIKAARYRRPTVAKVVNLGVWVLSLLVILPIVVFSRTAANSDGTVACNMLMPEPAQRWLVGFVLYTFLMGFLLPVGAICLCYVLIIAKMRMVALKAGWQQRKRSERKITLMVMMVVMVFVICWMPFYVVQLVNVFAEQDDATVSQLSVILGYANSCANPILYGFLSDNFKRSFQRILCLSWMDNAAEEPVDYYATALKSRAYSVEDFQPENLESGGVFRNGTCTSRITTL

GPCRome screening signal at S1PR2 (320 non-olfactory GPCRs [1]; [5])	GPCRome screening signal at S1PR4 (320 non-olfactory GPCRs [2]; [5])	GPCRome screening signal at SSTR1 (320 non-olfactory GPCRs [3]; [5])	GPCRome screening signal at SSTR5 (320 non-olfactory GPCRs [4]; [5])	Structure (SMILES)	GPCRome agonism screen response (320 non-olfactory GPCRs [1]; replicate values, Fig_4g)	GPCRome agonism screen response (320 non-olfactory GPCRs [2]; replicate values, Fig_4g)	GPCRome agonism screen response (320 non-olfactory GPCRs [3]; replicate values, Fig_4g)	GPCRome agonism screen response (320 non-olfactory GPCRs [4]; replicate values, Fig_4g)
2.447 and 1.17 and 1.142 and 1.029	1.441 and 1.208 and 0.7517 and 1.693	2.563 and 1.311 and 1.193 and 0.9402	1.884 and 1.207 and 1.033 and 0.572	CCOc1ccccc1CCC(C)NCC1(O)CCCCC1.Cl (racemic) [Fig_5f]	–	–	–	–
–	–	–	–	CCOc1cccc2cc(C(C)NCC3(O)CCCCC3)oc12 (centres unmarked) [O4LE6]	2.111 and 0.9213 and 3.313 and 1.2731	0.2093 and 0.09901 and 4.053 and 0.7997	1.245 and 0.3022 and 1.123 and 1.305	1.067 and 0.3371 and 0.8014 and 0.9752
